Laboratory results as given in patent US20100160255A1, “SPIRO-CYCLIC COMPOUND” (Takeda Pharmaceutical Company Limited, priority 2005, published 2010).
pIC50: −log10 of the molar value. Where two headings read alike, the source gives them in different places.

Columns and labels:
human ACC1 = molecular target: T1, human ACC1 (Homo sapiens, UniProt Q13085); experiment: ACC1 inhibitory activity (malachite green absorbance assay, recombinant enzyme); assay type: biochemical
T1 construct: made in house; host or cells: SF-9 insect cells, recombinant baculovirus BAC-ACC1
Protocol: The ACC1 inhibitory activity of the compound of the present invention was evaluated by the following method.
(§1) Human ACC1 gene was cloned by PCR using human liver cDNA library (Clontech) as a template, and Primer 1 and Primer 2 shown below. Primer 1 and Primer 2 were prepared by adding recognition sequence of restriction enzymes SalI and NotI based on the information of the base sequence (Genbank Accession U19822) of human ACC1 gene.
(§2) PCR was performed using Pyrobest DNA polymerase (TAKARA BIO INC.). The obtained PCR product was cloned to pT7 Blue vector (Novagen) which was, after confirmation of the base sequence, digested with restriction enzymes SalI and NotI. The obtained DNA fragment was inserted into pFAST-BacHTc (Invitrogen) digested with restriction enzymes SalI and NotI to give expression plasmid ACC1/pFAST-BacHTc.
Using the expression plasmid and BAC-TO-BAC Baculovirus Expression System (Invitrogen), virus stock BAC-ACC1 of recombinant Baculovirus was prepared.
(§3) SF-9 cells (Invitrogen) were sown at 1×10^6 cells/mL to insect cell culture medium (1 L, Sf-900II SFM medium (Invitrogen) containing 10% fetal bovine serum (Trace), 50 mg/L gentamicin (Invitrogen) and 0.1% Pluronic F-68 (Invitrogen)), and shaking culture was performed using a 2 L volume Erlenmeyer flask at 27° C., 100 rpm.
After culturing for 24 hr, the recombinant Baculovirus BAC-ACC1 (10 mL) was added, and the mixture was further cultured for 3 days. The culture medium was centrifuged at 1000×g for 5 min to give virus-infected cells. The infected cells were washed with phosphate buffered saline (Invitrogen) and centrifuged under the same conditions, and the obtained cells were cryopreserved at −80° C.
The cryopreserved cells were thawed in ice, suspended in 25 mM HEPES buffer (100 mL, pH 7.5) containing 10% Glycerol, 0.13 M NaCl, 1 mM EDTA, 25 mM sodium β-glycerophosphate, 1 mM sodium orthovanadate, added with Complete Protease Inhibitor (Boehringer). The obtained suspension was homogenized 3 times with a Polytron homogenizer (Kinematica) at 20,000 rpm for 30 seconds. The obtained cell disrupt solution was clarified by centrifugation at 185700×g for 50 min and filtrated using a 0.45 μm filter. The filtrate was passed through a column packed with Ni-NTA Super Flow Gel (QIAGEN, 12 mL) at a flow rate of about 5 mL/min. The column was washed with buffer A (50 mM HEPES containing 0.3M NaCl, pH 7.5), further washed with buffer A containing 20 mM Imidazole, and eluted with buffer A containing 100 mM Imidazole. The eluate was concentrated with Vivaspin 20 (Vivascience) having a molecular weight cut off of 30 K. The obtained concentrate was dialyzed using Sephadex G-25 (Amersham Bioscience K.K., 358 mL) equilibrated with 50 mM HEPES (pH7.5) containing 10 mM MgCl2, 2 mM dithiothreitol, 10 mM tripotassium citrate and 0.3M NaCl. The dialysate was concentrated with Vivaspin 20 (Vivascience) having a molecular weight cut off of 30 K and the concentrate was filtered through a 0.22 μm filter to give ACC1. The obtained ACC1 was cryopreserved at −80° C.
ACC1 (0.93 mg/ml) obtained in (2) above was diluted to a concentration of 8 μg/ml with an enzyme reaction buffer (50 mM HEPES (pH7.5), 10 mM MgCl2, 10 mM tripotassium citrate, 2 mM dithiothreitol, 0.75 mg/ml fatty acid free BSA), and added to each well of a 384 well assay plate (Nunc 265196) by 10 μl. […]

human ACC2 = molecular target: T2, human ACC2 (Homo sapiens, UniProt O00763); experiment: ACC2 inhibitory activity (malachite green absorbance assay, recombinant ACC2(Nd)); assay type: biochemical
T2 construct: made in house; host or cells: SF-9 insect cells, recombinant baculovirus BAC-ACC2(Nd)
T2 sequence (O00763 117-2458 limits assumed): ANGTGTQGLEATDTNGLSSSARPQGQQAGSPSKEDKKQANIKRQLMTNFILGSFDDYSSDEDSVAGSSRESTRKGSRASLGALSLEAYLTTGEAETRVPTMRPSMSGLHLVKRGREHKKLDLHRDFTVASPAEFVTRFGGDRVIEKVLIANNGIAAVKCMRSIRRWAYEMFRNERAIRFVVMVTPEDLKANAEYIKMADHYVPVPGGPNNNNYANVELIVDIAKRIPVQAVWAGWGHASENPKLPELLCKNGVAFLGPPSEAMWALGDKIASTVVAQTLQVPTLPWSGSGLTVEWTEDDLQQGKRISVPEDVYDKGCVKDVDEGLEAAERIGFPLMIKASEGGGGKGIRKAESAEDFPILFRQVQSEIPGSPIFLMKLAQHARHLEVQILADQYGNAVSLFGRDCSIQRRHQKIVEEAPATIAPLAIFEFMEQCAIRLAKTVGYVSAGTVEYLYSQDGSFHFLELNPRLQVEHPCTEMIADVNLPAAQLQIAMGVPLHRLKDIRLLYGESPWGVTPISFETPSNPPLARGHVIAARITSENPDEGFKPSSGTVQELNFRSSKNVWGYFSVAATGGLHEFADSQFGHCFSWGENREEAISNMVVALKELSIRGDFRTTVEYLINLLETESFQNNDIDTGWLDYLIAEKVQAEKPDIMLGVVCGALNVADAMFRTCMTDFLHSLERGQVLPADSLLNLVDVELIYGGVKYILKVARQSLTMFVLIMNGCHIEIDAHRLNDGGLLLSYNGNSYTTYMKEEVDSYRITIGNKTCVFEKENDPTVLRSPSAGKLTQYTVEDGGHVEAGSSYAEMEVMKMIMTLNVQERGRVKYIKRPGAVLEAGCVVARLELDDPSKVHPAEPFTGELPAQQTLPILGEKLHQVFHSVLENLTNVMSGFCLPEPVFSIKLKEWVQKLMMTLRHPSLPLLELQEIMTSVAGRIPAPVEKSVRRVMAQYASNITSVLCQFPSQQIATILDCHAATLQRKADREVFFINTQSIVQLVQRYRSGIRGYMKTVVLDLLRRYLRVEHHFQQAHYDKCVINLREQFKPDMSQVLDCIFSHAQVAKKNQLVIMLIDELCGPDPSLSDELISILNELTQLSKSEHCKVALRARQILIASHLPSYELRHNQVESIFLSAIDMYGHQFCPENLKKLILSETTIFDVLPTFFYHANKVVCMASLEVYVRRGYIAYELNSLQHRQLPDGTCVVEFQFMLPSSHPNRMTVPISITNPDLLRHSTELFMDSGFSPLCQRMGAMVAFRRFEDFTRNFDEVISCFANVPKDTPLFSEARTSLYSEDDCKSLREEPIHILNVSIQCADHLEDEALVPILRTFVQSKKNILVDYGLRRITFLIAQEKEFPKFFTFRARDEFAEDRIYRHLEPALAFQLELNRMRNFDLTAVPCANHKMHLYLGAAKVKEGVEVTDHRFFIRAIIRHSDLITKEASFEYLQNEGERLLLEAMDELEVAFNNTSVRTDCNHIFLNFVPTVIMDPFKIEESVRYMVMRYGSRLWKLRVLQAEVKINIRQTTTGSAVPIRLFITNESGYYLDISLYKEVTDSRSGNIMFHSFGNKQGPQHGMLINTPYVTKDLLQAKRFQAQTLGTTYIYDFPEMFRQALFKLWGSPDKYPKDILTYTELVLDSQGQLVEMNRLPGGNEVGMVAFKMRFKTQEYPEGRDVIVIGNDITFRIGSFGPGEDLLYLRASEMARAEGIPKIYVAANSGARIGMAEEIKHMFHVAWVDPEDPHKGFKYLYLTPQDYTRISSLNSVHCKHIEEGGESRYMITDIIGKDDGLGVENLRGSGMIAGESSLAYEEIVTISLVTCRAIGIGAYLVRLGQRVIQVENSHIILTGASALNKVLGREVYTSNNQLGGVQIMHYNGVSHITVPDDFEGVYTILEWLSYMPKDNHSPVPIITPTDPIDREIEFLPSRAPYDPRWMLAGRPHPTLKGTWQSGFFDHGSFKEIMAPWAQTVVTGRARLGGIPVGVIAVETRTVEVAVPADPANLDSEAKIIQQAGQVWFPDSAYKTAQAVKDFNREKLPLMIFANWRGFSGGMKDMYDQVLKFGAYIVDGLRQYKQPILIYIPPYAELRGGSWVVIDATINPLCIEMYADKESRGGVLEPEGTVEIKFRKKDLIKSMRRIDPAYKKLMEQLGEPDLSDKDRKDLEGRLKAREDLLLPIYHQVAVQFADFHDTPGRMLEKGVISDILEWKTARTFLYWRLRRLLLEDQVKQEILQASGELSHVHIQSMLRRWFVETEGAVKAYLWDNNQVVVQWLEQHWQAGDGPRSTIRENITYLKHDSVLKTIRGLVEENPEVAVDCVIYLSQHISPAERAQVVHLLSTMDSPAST
Protocol: The ACC2 inhibitory activity of the compound of the present invention was evaluated by the following method.
as §1, with “ACC2” for “ACC1”, “skeletal muscle” for “liver”, “XbaI” for “NotI”, “U89344)” for “U19822)”
as §2, with “XbaI.” for “NotI.”, “pFAST-BacHTa” for “pFAST-BacHTc”, “XbaI” for “NotI”, “ACC2/pFAST-BacHTa.” for “ACC1/pFAST-BacHTc.”
A plasmid for expression of ACC2 free of mitochondrial targeting sequence was prepared by PCR using the expression plasmid as a template, and Primer 3 and Primer 4 shown below.
as §2, with “AflII.” for “NotI.”, “pFAST-BacHTa” for “pFAST-BacHTc”, “AflII” for “NotI”, “ACC2mito7/pFAST-BacHTa.” for “ACC1/pFAST-BacHTc.”
Using the expression plasmid and BAC-TO-BAC Baculovirus Expression System (Invitrogen), virus stock BAC-ACC2 of recombinant Baculovirus (N terminal deletion (hereinafter Nd)) was prepared.
as §3, with “0.5×10^6” for “1×10^6”, “(2” for “(1”, “Wave Bioreactor (Wave) under the conditions of” for “2 L volume Erlenmeyer flask at”, “20 rpm, rocking angle of 6° and oxygen concentration of 30%.” for “100 rpm.”
On day 4 of the culture, 3 L of an insect cell culture medium was added, the rocking angle was set to 8°, and the cells were further cultured. On day 5 of the culture, the recombinant Baculovirus BAC-ACC2(Nd) (100 mL) was added, 5 L of the insect cell culture medium was further added, the rocking angle was set to 11°, and the cells were cultured for 3 days. The culture medium was centrifuged at 1000×g for 10 min to give virus-infected cells. The infected cells were washed with phosphate buffered saline (Invitrogen) and centrifuged under the same conditions, and the obtained cells were cryopreserved at −80° C.
The cryopreserved cells were thawed in ice, suspended in 25 mM HEPES buffer (900 mL, pH 7.5) containing 10% Glycerol, 0.13 M NaCl, 1 mM EDTA, 25 mM sodium β-glycerophosphate, 1 mM sodium orthovanadate, added with Complete Protease Inhibitor (Boehringer). The obtained suspension was homogenized 3 times with a Polytron homogenizer (Kinematica) at 20,000 rpm for 30 seconds. The obtained cell disrupt solution was clarified by centrifugation at 31000×g for 60 min and filtrated using a 0.45 μm filter. The filtrate was passed through a column packed with Ni-NTA Super Flow Gel (QIAGEN, 60 mL) at a flow rate of about 5 mL/min. The column was washed with buffer A (50 mM HEPES containing 0.3M NaCl, pH 7.5), further washed with buffer A containing 20 mM Imidazole, and eluted with buffer A containing 100 mM Imidazole. The eluate was concentrated with Vivaspin 20 (Vivascience) having a molecular weight cut off of 30 K. The obtained concentrate was dialyzed against 50 mM HEPES (pH7.5) containing 10 mM MgCl2, 2 mM dithiothreitol, 10 mM tripotassium citrate and 0.3M NaCl. The dialysate was filtered through a 0.22 μm filter to give ACC2(Nd). The obtained ACC2(Nd) was cryopreserved at −80° C. […]

[1] = Table 8, recombinant human ACC1, 30° C., absorbance 620 nm, read-out: IC50 (ACC1 inhibitory activity)
[2] = Table 9, recombinant human ACC2(Nd), N terminal deletion, 30° C., absorbance 620 nm, read-out: IC50 (ACC2 inhibitory activity)
[3] = Experimental Example 3, same manner as Experimental Example 1, read-out: IC50 values (ACC1 inhibitory activity)

SMILES	pIC50 (human ACC1; [1])	pIC50 (human ACC2; [2])	pIC50 (human ACC1; [3])	pIC50 (human ACC2; Experimental Example 4, same manner as Experimental Example 2, read-out: IC50 values (ACC2 inhibitory activity))
CCCN1C(=O)OC2(CCCN(C3CCN(C(=O)c4c(NC(N)=O)sc5ccccc45)CC3)C2)C1=O (centres unmarked) [Example 343, N-(3-{[4-(2,4-dioxo-3-propyl-1-oxa-3,7-diazaspiro[4.5]dec-7-yl)piperidin-1-yl]carbonyl}-1-benzothien-2-yl)urea]	6.47	7.52		
CCN1C(=O)OC2(CCCN(C3CCN(C(=O)c4c(NC(=O)NC)sc5ccccc45)CC3)C2)C1=O (centres unmarked) [Example 347, N-(3-{[4-(3-ethyl-2,4-dioxo-1-oxa-3,7-diazaspiro[4.5]dec-7-yl)piperidin-1-yl]carbonyl)-1-benzothien-2-yl)-N′-methylurea]	6.51	7.47		
CCCN1CCC2(CCCN(C3CCN(C(=O)c4c(NC(N)=O)sc5ccccc45)CC3)C2)C1=O (centres unmarked) [Example 352, N-(3-{[4-(1-oxo-2-propyl-2,7-diazaspiro[4.5]dec-7-yl)piperidin-1-yl]carbonyl}-1-benzothien-2-yl)urea]	6.54	7.39		
CCN1C(=O)CC2(CCCN(C3CCN(C(=O)c4c(NC(=O)NC)sc5ccccc45)CC3)C2)C1=O (centres unmarked) [Example 363, N-(3-{[4-(2-ethyl-1,3-dioxo-2,7-diazaspiro[4.5]dec-7-yl)piperidin-1-yl]carbonyl}-1-benzothien-2-yl)-N′-methylurea]	6.47	7.25		
CC(C)NC(=O)Nc1sc2ccccc2c1C(=O)N1CCC(N2CCCC3(CC(=O)NC3=O)C2)CC1 (centres unmarked) [Example 397, N-(3-{[4-(1,3-dioxo-2,7-diazaspiro[4.5]dec-7-yl)piperidin-1-yl]carbonyl}-1-benzothien-2-yl)-N′-isopropylurea]	6.66	7.41		
CCNC(=O)Nc1sc2c(c1C(=O)N1CCC(N3CCCC4(C3)OC(=O)N(C(C)(C)C)C4=O)CC1)CCCC2=O (centres unmarked) [Example 420, N-(3-{[4-(3-tert-butyl-2,4-dioxo-1-oxa-3,7-diazaspiro[4.5]dec-7-yl)piperidin-1-yl]carbonyl}-7-oxo-4,5,6,7-tetrahydro-1-benzothien-2-yl)-N′-ethylurea]			≥ 7.00	≥ 8.00

Now from value to molecule:

pIC50 (human ACC1; [1])	pIC50 (human ACC2; [2])	pIC50 (human ACC1; [3])	pIC50 (human ACC2; Experimental Example 4, same manner as Experimental Example 2, read-out: IC50 values (ACC2 inhibitory activity))	SMILES
6.89	7.66			CCN1C(=O)CC2(CCCN(C3CCN(C(=O)c4c(NC(N)=O)sc5ccccc45)CC3)C2)C1=O (centres unmarked) [Example 340, 1-(3-{[4-(2-ethyl-1,3-dioxo-2,7-diazaspiro[4.5]dec-7-yl)piperidin-1-yl]carbonyl)-1-benzothien-2-yl)urea]
6.96	7.66			CNC(=O)Nc1sc2ccccc2c1C(=O)N1CCC(N2CCCC3(CCN(C(C)C)C3=O)C2)CC1 (centres unmarked) [Example 360, N-(3-{[4-(2-isopropyl-1-oxo-2,7-diazaspiro[4.5]dec-7-yl)piperidin-1-yl]carbonyl}-1-benzothien-2-yl)-N′-methylurea]
6.74	7.74			CC(C)N1C(=O)CC2(CCCN(C3CCN(C(=O)c4c(NC(N)=O)sc5ccccc45)CC3)C2)C1=O (centres unmarked) [Example 366, N-(3-{[4-(2-isopropyl-1,3-dioxo-2,7-diazaspiro[4.5]dec-7-yl)piperidin-1-yl]carbonyl}-1-benzothien-2-yl)urea]
6.68	7.35			CCNC(=O)Nc1sc2ccccc2c1C(=O)N1CCC(N2CCCC3(CC(=O)N(C)C3=O)C2)CC1 (centres unmarked) [Example 380, N-ethyl-N′-(3-{[4-(2-methyl-1,3-dioxo-2,7-diazaspiro[4.5]dec-7-yl)piperidin-1-yl]carbonyl}-1-benzothien-2-yl)urea]
7.01	7.89	≥ 7.00		CCNC(=O)Nc1sc2ccccc2c1C(=O)N1CCC(N2CCCC3(CCN(CC)C3=O)C2)CC1 (centres unmarked) [Example 400, N-ethyl-N′-(3-{[4-(2-ethyl-1-oxo-2,7-diazaspiro[4.5]dec-7-yl)piperidin-1-yl]carbonyl}-1-benzothien-2-yl)urea]
7.14	7.82	≥ 7.00		CCNC(=O)Nc1sc2ccccc2c1C(=O)N1CCC(N2CCCC3(C2)N=C(C)N(CC)C3=O)CC1 (centres unmarked) [Example 401, 1-ethyl-3-(3-{[4-(3-ethyl-2-methyl-4-oxo-1,3,7-triazaspiro[4.5]dec-1-en-7-yl)piperidin-1-yl]carbonyl}-1-benzothien-2-yl)urea]
